# Measured values published in patent US8609858B2, “Spiro derivatives of parthenin as novel anticancer agents” (Council of Scientific & Industrial Research, priority 2008, dated 2013).
# Entries after “also recorded” stand apart in the source; their conditions may differ.
# Tests used:
# [1] = system: Ehrlich Ascites Tumor (EAT); assay: Anti tumor activity on solid Ehrlich Ascites Tumor (EAT) bearing mice; type: in vivo; conditions: for % Tumor growth inhibition / Tumor Weight (mg) Mean ± SE: day 13; for mortality of test animals: EAT bearing mice
# Text: (§1) Non-inbred swiss albino mice from an in-house colony were used in the present study. The breeding and experimental animals were housed in standard size polycarbonate cages providing internationally recommended space for each animal. Animals were fed balanced mice feed supplied by MIs Ashirwad Industries, Chandigarh (India) and autoclaved water was available ad libitum. Animals were cared as per the guide for the care and use of laboratory animals (1996), ILAR, Washington D.C. They were housed in controlled conditions of temperature (23±2° C.), humidity (50-60%) and 12:12 hrs of light: dark cycle. The study and the number of animals used were approved by the institutional animal ethics committee, IIIM, Jammu, India. The study was conducted as per the protocols of National Cancer Institute (NCl), USA (Geran et al., 1972).
# Parthenin and its derivative Compound-17 were evaluated against solid Ehrlich Ascites Tumor (EAT) models at different doses. A standard procedure for experiment was as followed:
# Animals of the same sex weighing 20±3 g were injected 1×10^7 cells collected from the peritoneal cavity of non-inbred swiss mice, bearing 8-10 days old tumor cells, into the right thigh, intramuscularly (on Day 1). On next day animals were randomized and divided into test groups (7 animals in each test group) and one tumor control group (10 animals). Test groups were treated with different doses of Parthenin (10 mg/kg, 25 mg/kg and 50 mg/kg) and its derivative Compound-17 (10 mg/kg, 25 mg/kg and 50 mg/kg, 100 mg/kg and 200 mg/kg) suspension in 1% gum acacia in, their respective group intraperitonealy for nine consecutive days. Another test group was administered 5-FU @ 22 mg/kg i.p and served as positive control. The tumor contra group was similarly administered normal saline (0.2 ml i.p). The percent tumor growth-inhibition was measured on day 13 with respect to their tumor weight (Geran et al., 1972): Shortest and longest diameters of the tumor mass were measured with the help of vernier caliper and tumor weight (mg) was calculated by using following formula Tumor weight (mg)=Length (mm)×(Width (mm)^2/2 The average tumor weight for each group was calculated and the percent tumor growth inhibition in treated groups was calculated as follows: % Tumor Growth Inhibition=100×(Average tumor weight of control group−Average tumor weight of test group)/Average tumor weight of control group Anti Tumor Activity of Parthenin and its Derivative Compound-17 on Ehrlich Ascites Carcinoma (EAC)
# [2] = system: Ehrlich Ascites Carcinoma (EAC); assay: Anti tumor activity on Ehrlich Ascites Carcinoma (EAC) bearing mice; type: in vivo; conditions: for % Tumor growth inhibition / Ascitic fluid volume (ml) Mean ± SE / Tumor cells in ascitic fluid (×10^7) Mean ± SE: day 12; for mortality of test animals: EAC bearing mice
# Text: as §1
# Ehrlich Ascites Carcinoma (EAC) was propagated by transplanting 1×10^7 cells from an animal bearing 8-10 days old Ehrlich Ascites Carcinoma, into the peritoneal cavity of non-inbreed swiss mice. For testing, mice of the same sex weighing 20 ±3 g bearing ascites tumor were selected. 1×10^7 cells obtained from an animal bearing 8-10 days old ascites tumor were injected into peritoneal cavity of all animals used for testing (0 Day). On next day animals were randomized and divided into test groups (7 animals in each test group) and one tumor control group (10 animals). Test groups were treated with different doses of Parthenin (10 mg/kg, 25 mg/kg and 50 mg/kg) and its derivative Compound-17 (10 mg/kg, 25 mg/kg and 50 mg/kg, 100 mg/kg and 200 mg/kg) suspension in 1% gum acacia in their respective group intraperitonealy for nine consecutive days. Another test group was administered 5 FU @ 20 mg/kg i.p and served as positive control. The tumor control group was similarly administered normal saline (0.2 ml i.p). The percent tumor growth inhibition were measured on day 12 with respect to volume of ascitic fluid and the number of tumor cells in the ascitic fluid of peritoneal cavity (Geran et al., 1972; Singh et al., 2007).
# The percent tumor growth inhibition was calculated as follow. % growth inhibition=100×(Average no. of cells in control group−Average no. of cells in test group)/Average no. of cells in control group Results: […]
# [3] = system: DU-145; assay: In vitro cytotoxicity screening (sulphodamine B dye), DU-145; type: cell-based; conditions: Homo sapiens; DU-145 prostate cancer cell line
# Method: (§2) Cells at sub confluent stage were harvested from the flask by treatment with trypsin (0.5% in PBS containing 0.02% EDTA) for determination of cytotoxicity. […] The cell suspensions of required cell density were prepared in complete growth medium with gentamycin (50 μg/ml) for determination of cytotoxicity. The cells (100 μl/well) were inoculated in 96 well tissue culture plates. The cells were allowed to grow for 24 hrs temperature of 37° C. and in a humidified atmosphere of 5% CO2 in air. Stock solution of (20 mM) of test material was prepared in DMSO. The stock solution was serially diluted with complete growth medium containing 50 μg/ml of gentamycin to obtain […] working test solutions of 1., 2, 5, 10, 50 and 100 μM.
# (§3) The media were supplemented with FCS (10%), penicillin (100 Units/ml), streptomycin (100 μg/ml) and glutamine (2 mM) and cells were grown in CO2 incubator (Hera cell, Heraeus, USA) at 37° C. with 90% humidity and 5% CO2.
# [4] = system: SW-620; assay: In vitro cytotoxicity screening (sulphodamine B dye), SW-620; type: cell-based; conditions: Homo sapiens; SW-620 colon cancer cell line
# Method: as §2, §3
# [5] = system: PC-3; assay: In vitro cytotoxicity screening (sulphodamine B dye), PC-3; type: cell-based; conditions: Homo sapiens; PC-3 prostate cancer cell line
# Method: as §2, §3
SMILES,% Tumor growth inhibition ([1]; 22 mg/kg i.p.),Tumor Weight (mg) Mean ± SE ([1]; 22 mg/kg i.p.),% Tumor growth inhibition ([2]; 20 mg/kg i.p.),Ascitic fluid volume (ml) Mean ± SE ([2]; 20 mg/kg i.p.),Tumor cells in ascitic fluid (×10^7) Mean ± SE ([2]; 20 mg/kg i.p.),melting point,IC50 [3],IC50 [4],IC50 [5],"% Tumor growth inhibition ([1]; 10 mg/kg i.p., nine days)","Tumor Weight (mg) Mean ± SE ([1]; 10 mg/kg i.p., nine days)",mortality of test animals ([1]; 25 mg/kg i.p.),mortality of test animals ([1]; 50 mg/kg i.p.),"% Tumor growth inhibition ([2]; 10 mg/kg i.p., nine days)","Ascitic fluid volume (ml) Mean ± SE ([2]; 10 mg/kg i.p., nine days)","Tumor cells in ascitic fluid (×10^7) Mean ± SE ([2]; 10 mg/kg i.p., nine days)",mortality of test animals ([2]; 25 mg/kg i.p.),mortality of test animals ([2]; 50 mg/kg i.p.)
"O=c1[nH]cc(F)c(=O)[nH]1 [Compound 5-FU, 5-Fluorouracil, reference compound]",51.28%,832.28 ± 35.21 mg,100%,0 mL,0 ×10^7,–,–,–,–,–,–,–,–,–,–,–,–,–
C[C@H]1CC[C@@H]2[C@@H](OC(=O)C23CN3c2ccccc2[N+](=O)[O-])[C@]2(C)C(=O)C=C[C@]12O (stereo partly drawn) [Compound -39],–,–,–,–,–,222 to 224 °C,28 µM,33 µM,10 µM,–,–,–,–,–,–,–,–,–
C=C1C(=O)O[C@@H]2[C@H]1CC[C@H](C)[C@]1(O)C=CC(=O)[C@@]21C [Parthenin],–,–,–,–,–,–,31.1 µM,38.7 µM,40.3 µM,9.69%,1542.86 ± 35.24 mg,mortality of all the animals; also recorded: All animals died by 4th day,mortality of all the animals; also recorded: All animals died by 2nd day,12.01%,3.92 ± 0.38 mL,74.71 ± 2.77 ×10^7,mortality of all the test animals; also recorded: All animals died by 4th day,mortality of all the test animals; also recorded: All animals died by 2nd day
